Data taken from patent publication US20240238242A1, “EGCG buccal tablet and use thereof” (priority 2023, published 2024).
Several values for one entry are separate records, joined by “and”; a condition that tells them apart may be missing. Equal entries are not always repeated.

Test system: Coronavirus (hCoV-229E)
Test: Inactivation efficiency against coronavirus hCoV-229E strain (residual TCID50 on Huh-7 cells)
Format: cell-based
Details: for CPE test (virus replication in cell wells): wells 1-10; for average inactivation efficiency against virus: three experiments

O=C(O[C@@H]1Cc2c(O)cc(O)cc2O[C@@H]1c1cc(O)c(O)c(O)c1)c1cc(O)c(O)c(O)c1 [EGCG, Epigallocatechin gallate]
−: CPE test (virus replication in cell wells) (0.2 mM EGCG + hCoV-229E virus, co-incubated 1 minute, first experiment, dilution factor 10^6) | CPE test (virus replication in cell wells) (0.2 mM EGCG + hCoV-229E virus, co-incubated 1 minute, first experiment, dilution factor 10^7) | CPE test (virus replication in cell wells) (0.2 mM EGCG + hCoV-229E virus, co-incubated 1 minute, first experiment, dilution factor 10^8) | CPE test (virus replication in the cell wells) (0.2 mM EGCG + virus, co-incubated 5 minute, first experiment, dilution factor 10^7, wells 1-10) | CPE test (virus replication in the cell wells) (0.2 mM EGCG + virus, co-incubated 5 minute, first experiment, dilution factor 10^8, wells 1-10) | CPE test (virus replication in the cell wells) (0.2 mM EGCG + virus, co-incubated 5 minute, second experiment, dilution factor 10^7, wells 1-10) | CPE test (virus replication in the cell wells) (0.2 mM EGCG + virus, co-incubated 5 minute, second experiment, dilution factor 10^8, wells 1-10) | CPE test (virus replication in the cell wells) (0.2 mM EGCG + virus, co-incubated 5 minutes, dilution factor 10^7, wells 1-10, third experiment) | CPE test (virus replication in the cell wells) (0.2 mM EGCG + virus, co-incubated 5 minutes, dilution factor 10^8, wells 1-10, third experiment) | CPE test (virus replication in cell wells) (0.2 mM EGCG + virus, hCoV-229E co-incubated 1 minute, second experiment, dilution factor 10^6) | CPE test (virus replication in cell wells) (0.2 mM EGCG + virus, hCoV-229E co-incubated 1 minute, second experiment, dilution factor 10^7) | CPE test (virus replication in cell wells) (0.2 mM EGCG + virus, hCoV-229E co-incubated 1 minute, second experiment, dilution factor 10^8) | CPE test (virus replication in cell wells) (0.2 mM EGCG + virus, hCoV-229E co-incubated 1 minute, third experiment, dilution factor 10^7) | CPE test (virus replication in cell wells) (0.2 mM EGCG + virus, hCoV-229E co-incubated 1 minute, third experiment, dilution factor 10^8) | CPE test (virus replication in cell wells) (1 mM EGCG + hCoV-229E virus, co-incubated 1 minute, first experiment, dilution factor 10^6) | CPE test (virus replication in cell wells) (1 mM EGCG + hCoV-229E virus, co-incubated 1 minute, first experiment, dilution factor 10^7) | CPE test (virus replication in cell wells) (1 mM EGCG + hCoV-229E virus, co-incubated 1 minute, first experiment, dilution factor 10^8) | CPE test (virus replication in the cell wells) (1 mM EGCG + virus, co-incubated 5 minute, first experiment, dilution factor 10^7, wells 1-10) | CPE test (virus replication in the cell wells) (1 mM EGCG + virus, co-incubated 5 minute, first experiment, dilution factor 10^8, wells 1-10) | CPE test (virus replication in the cell wells) (1 mM EGCG + virus, co-incubated 5 minute, second experiment, dilution factor 10^6, wells 1-10) | CPE test (virus replication in the cell wells) (1 mM EGCG + virus, co-incubated 5 minute, second experiment, dilution factor 10^7, wells 1-10)
+ and −: CPE test (virus replication in the cell wells) (0.2 mM EGCG + virus, co-incubated 5 minute, first experiment, dilution factor 10^5, wells 1-10) | CPE test (virus replication in the cell wells) (0.2 mM EGCG + virus, co-incubated 5 minute, first experiment, dilution factor 10^6, wells 1-10) | CPE test (virus replication in the cell wells) (0.2 mM EGCG + virus, co-incubated 5 minute, second experiment, dilution factor 10^5, wells 1-10) | CPE test (virus replication in the cell wells) (0.2 mM EGCG + virus, co-incubated 5 minutes, dilution factor 10^4, wells 1-10, third experiment) | CPE test (virus replication in cell wells) (0.2 mM EGCG + virus, hCoV-229E co-incubated 1 minute, second experiment, dilution factor 10^5) | CPE test (virus replication in cell wells) (0.2 mM EGCG + virus, hCoV-229E co-incubated 1 minute, third experiment, dilution factor 10^6) | CPE test (virus replication in cell wells) (1 mM EGCG + hCoV-229E virus, co-incubated 1 minute, first experiment, dilution factor 10^5) | CPE test (virus replication in the cell wells) (1 mM EGCG + virus, co-incubated 5 minute, second experiment, dilution factor 10^5, wells 1-10)
13.71%: average inactivation efficiency against virus (0.2 mM EGCG, hCoV-229E virus, 5 minutes)
− and +: CPE test (virus replication in cell wells) (0.2 mM EGCG + hCoV-229E virus, co-incubated 1 minute, first experiment, dilution factor 10^5) | CPE test (virus replication in the cell wells) (0.2 mM EGCG + virus, co-incubated 5 minute, second experiment, dilution factor 10^6, wells 1-10) | CPE test (virus replication in the cell wells) (0.2 mM EGCG + virus, co-incubated 5 minutes, dilution factor 10^6, wells 1-10, third experiment) | CPE test (virus replication in cell wells) (0.2 mM EGCG + virus, hCoV-229E co-incubated 1 minute, third experiment, dilution factor 10^5) | CPE test (virus replication in the cell wells) (1 mM EGCG + virus, co-incubated 5 minute, first experiment, dilution factor 10^5, wells 1-10) | CPE test (virus replication in the cell wells) (1 mM EGCG + virus, co-incubated 5 minute, first experiment, dilution factor 10^6, wells 1-10)
31.46%: average inactivation efficiency against virus (0.2 mM EGCG, hCoV-229E virus, 1 minute)
36.90% and 20.57%: inactivation efficiency against the virus (0.2 mM EGCG, hCoV-229E virus, 1 minute, single experiment)
+: CPE test (virus replication in cell wells) (0.2 mM EGCG + hCoV-229E virus, co-incubated 1 minute, first experiment, dilution factor 10^1) | CPE test (virus replication in cell wells) (0.2 mM EGCG + hCoV-229E virus, co-incubated 1 minute, first experiment, dilution factor 10^2) | CPE test (virus replication in cell wells) (0.2 mM EGCG + hCoV-229E virus, co-incubated 1 minute, first experiment, dilution factor 10^3) | CPE test (virus replication in cell wells) (0.2 mM EGCG + hCoV-229E virus, co-incubated 1 minute, first experiment, dilution factor 10^4) | CPE test (virus replication in the cell wells) (0.2 mM EGCG + virus, co-incubated 5 minute, first experiment, dilution factor 10^1, wells 1-10) | CPE test (virus replication in the cell wells) (0.2 mM EGCG + virus, co-incubated 5 minute, first experiment, dilution factor 10^2, wells 1-10) | CPE test (virus replication in the cell wells) (0.2 mM EGCG + virus, co-incubated 5 minute, first experiment, dilution factor 10^3, wells 1-10) | CPE test (virus replication in the cell wells) (0.2 mM EGCG + virus, co-incubated 5 minute, first experiment, dilution factor 10^4, wells 1-10) | CPE test (virus replication in the cell wells) (0.2 mM EGCG + virus, co-incubated 5 minute, second experiment, dilution factor 10^1, wells 1-10) | CPE test (virus replication in the cell wells) (0.2 mM EGCG + virus, co-incubated 5 minute, second experiment, dilution factor 10^2, wells 1-10) | CPE test (virus replication in the cell wells) (0.2 mM EGCG + virus, co-incubated 5 minute, second experiment, dilution factor 10^3, wells 1-10) | CPE test (virus replication in the cell wells) (0.2 mM EGCG + virus, co-incubated 5 minute, second experiment, dilution factor 10^4, wells 1-10) | CPE test (virus replication in the cell wells) (0.2 mM EGCG + virus, co-incubated 5 minutes, dilution factor 10^1, wells 1-10, third experiment) | CPE test (virus replication in the cell wells) (0.2 mM EGCG + virus, co-incubated 5 minutes, dilution factor 10^2, wells 1-10, third experiment) | CPE test (virus replication in the cell wells) (0.2 mM EGCG + virus, co-incubated 5 minutes, dilution factor 10^3, wells 1-10, third experiment) | CPE test (virus replication in the cell wells) (0.2 mM EGCG + virus, co-incubated 5 minutes, dilution factor 10^5, wells 1-10, third experiment) | CPE test (virus replication in cell wells) (0.2 mM EGCG + virus, hCoV-229E co-incubated 1 minute, second experiment, dilution factor 10^1) | CPE test (virus replication in cell wells) (0.2 mM EGCG + virus, hCoV-229E co-incubated 1 minute, second experiment, dilution factor 10^2) | CPE test (virus replication in cell wells) (0.2 mM EGCG + virus, hCoV-229E co-incubated 1 minute, second experiment, dilution factor 10^3) | CPE test (virus replication in cell wells) (0.2 mM EGCG + virus, hCoV-229E co-incubated 1 minute, second experiment, dilution factor 10^4) | CPE test (virus replication in cell wells) (0.2 mM EGCG + virus, hCoV-229E co-incubated 1 minute, third experiment, dilution factor 10^1) | CPE test (virus replication in cell wells) (0.2 mM EGCG + virus, hCoV-229E co-incubated 1 minute, third experiment, dilution factor 10^2) | CPE test (virus replication in cell wells) (0.2 mM EGCG + virus, hCoV-229E co-incubated 1 minute, third experiment, dilution factor 10^3) | CPE test (virus replication in cell wells) (0.2 mM EGCG + virus, hCoV-229E co-incubated 1 minute, third experiment, dilution factor 10^4) | CPE test (virus replication in cell wells) (1 mM EGCG + hCoV-229E virus, co-incubated 1 minute, first experiment, dilution factor 10^1) | CPE test (virus replication in cell wells) (1 mM EGCG + hCoV-229E virus, co-incubated 1 minute, first experiment, dilution factor 10^2) | CPE test (virus replication in cell wells) (1 mM EGCG + hCoV-229E virus, co-incubated 1 minute, first experiment, dilution factor 10^3) | CPE test (virus replication in cell wells) (1 mM EGCG + hCoV-229E virus, co-incubated 1 minute, first experiment, dilution factor 10^4) | CPE test (virus replication in the cell wells) (1 mM EGCG + virus, co-incubated 5 minute, first experiment, dilution factor 10^1, wells 1-10) | CPE test (virus replication in the cell wells) (1 mM EGCG + virus, co-incubated 5 minute, first experiment, dilution factor 10^2, wells 1-10) | CPE test (virus replication in the cell wells) (1 mM EGCG + virus, co-incubated 5 minute, first experiment, dilution factor 10^3, wells 1-10) | CPE test (virus replication in the cell wells) (1 mM EGCG + virus, co-incubated 5 minute, first experiment, dilution factor 10^4, wells 1-10) | CPE test (virus replication in the cell wells) (1 mM EGCG + virus, co-incubated 5 minute, second experiment, dilution factor 10^1, wells 1-10) | CPE test (virus replication in the cell wells) (1 mM EGCG + virus, co-incubated 5 minute, second experiment, dilution factor 10^2, wells 1-10) | CPE test (virus replication in the cell wells) (1 mM EGCG + virus, co-incubated 5 minute, second experiment, dilution factor 10^3, wells 1-10) | CPE test (virus replication in the cell wells) (1 mM EGCG + virus, co-incubated 5 minute, second experiment, dilution factor 10^4, wells 1-10)
